Laboratory results from patent publication US20190375708A1 (VenatoRx Pharmaceuticals, Inc., priority 2018, published 2019).

How the values were obtained:
[1] = test system: HBV replication in HepAD38 cells; assay: Anti-HBV replication assay in HepAD38 cells (QPCR of extracellular HBV DNA); type: cell-based, HBV (genotype D, serotype ayw); settings: Hepatitis B virus, 168 h, 7 days incubation, extracellular HBV DNA by QPCR, read-out: Anti-HBV EC50
In short: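 Steps: seed HepAD38 overnight without tetracycline; refresh medium and add 1 log10 serial dilutions ([…]); incubate 7 days at 37 °C; quantify supernatant HBV DNA by QPCR; derive EC50 from a 4-parameter dose-response fit.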

[2] = In vitro cytotoxicity assay (MTT cell viability) in HepG2 cells; type: cell-based, human; settings: human
In short: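 Viability measured by MTT conversion, absorbance at 492 nm, as percent of vehicle-treated wells. Compounds spanned 30 μM to 1.0 nM in half-log steps over a 7-day exposure of parental HepG2 cells; CC50 derived by 4-parameter curve fit.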

Cc1cc(NC(=O)c2c(C)c(C(=O)C(=O)NC(C)(C)C)n(CCF)c2C)ccc1F [Example 115, 5-(2-(tert-butylamino)-2-oxoacetyl)-N-(4-fluoro-3-methylphenyl)-1-(2-fluoroethyl)-2,4-dimethyl-1H-pyrrole-3-carboxamide] gave an EC50 [1] of less than 50 nM and a CC50 at 7 days [2] greater than 30000 nM.
Compound O=C(NC1(CO)CC1)C(=O)c1c(Cl)c(C(=O)Nc2ccc(F)c(F)c2)c2n1CCCC2 [Example 502, 2-chloro-N-(3,4-difluorophenyl)-3-(2-((1-(hydroxymethyl)cyclopropyl)amino)-2-oxoacetyl)-5,6,7,8-tetrahydroindolizine-1-carboxamide] has an EC50 [1] of 50 to 499 nM and a CC50 at 7 days [2] greater than 30000 nM.
With Cc1noc(C(C)NC(=O)C(=O)c2c(C)c(C(=O)Nc3ccc(F)c(C)c3)c(C)n2C)n1 (centres unmarked) [Example 82, N-(4-fluoro-3-methylphenyl)-1,2,4-trimethyl-5-(2-((1-(3-methyl-1,2,4-oxadiazol-5-yl)ethyl)amino)-2-oxoacetyl)-1H-pyrrole-3-carboxamide] the EC50 [1] was less than 50 nM and the CC50 at 7 days [2] was greater than 30000 nM.
With Cc1c(C(=O)Nc2ccc(F)c(Cl)c2)c2n(c1C(=O)C(=O)NC1(CO)CC1)CCCC2 [Example 453, N-(3-chloro-4-fluorophenyl)-3-(2-((1-(hydroxymethyl)cyclopropyl)amino)-2-oxoacetyl)-2-methyl-5,6,7,8-tetrahydroindolizine-1-carboxamide] the EC50 [1] was 50 to 499 nM and the CC50 at 7 days [2] was greater than 30000 nM.
In the case of Cc1cc(NC(=O)c2c(C)c(C(=O)C(=O)N[C@@H](C(=O)NCC(C)(C)O)C(C)(C)C)n(C)c2C)ccc1F [Example 87, (R)-N-(4-fluoro-3-methylphenyl)-5-(2-((1-((2-hydroxy-2-methylpropyl)amino)-3,3-dimethyl-1-oxobutan-2-yl)amino)-2-oxoacetyl)-1,2,4-trimethyl-1H-pyrrole-3-carboxamide], the EC50 [1] is reported as less than 50 nM and the CC50 at 7 days [2] is reported as greater than 30000 nM.
Cc1cc(NC(=O)c2c(C)c(C(=O)C(=O)N[C@@H]3CC[C@@H](O)[C@@H]3O)n(CCF)c2C)ccc1F [Example 197] showed an EC50 [1] of 50 to 499 nM and a CC50 at 7 days [2] greater than 30000 nM.
For Cc1cc(NC(=O)c2c(C)c(C(=O)C(=O)N[C@@H]3CCOC[C@H]3O)n(C)c2C)cnc1F [Example 164, N-(6-fluoro-5-methylpyridin-3-yl)-5-(2-(((3S,4R)-3-hydroxytetrahydro-2H-pyran-4-yl)amino)-2-oxoacetyl)-1,2,4-trimethyl-1H-pyrrole-3-carboxamide], the EC50 [1] was 500 to 1000 nM and the CC50 at 7 days [2] was greater than 30000 nM.
In the case of Cc1noc([C@H](C)NC(=O)C(=O)c2c(Cl)c(C(=O)Nc3cnc(F)c(C)c3)c3n2CCCC3)n1 [Example 521, (S)-2-chloro-N-(6-fluoro-5-methylpyridin-3-yl)-3-(2-((1-(3-methyl-1,2,4-oxadiazol-5-yl)ethyl)amino)-2-oxoacetyl)-5,6,7,8-tetrahydroindolizine-1-carboxamide], the EC50 [1] is reported as greater than 1000 nM and the CC50 at 7 days [2] is reported as greater than 30000 nM.
Cc1c(C(=O)Nc2ccc(F)c(F)c2)c(Cl)c(C(=O)C(=O)NC2(C)CC(F)(F)C2)n1C [Example 375, 4-chloro-5-(2-((3,3-difluoro-1-methylcyclobutyl)amino)-2-oxoacetyl)-N-(3,4-difluorophenyl)-1,2-dimethyl-1H-pyrrole-3-carboxamide] showed an EC50 [1] of less than 50 nM and a CC50 at 7 days [2] greater than 30000 nM.
Work on COc1c(C(=O)Nc2ccc(F)c(F)c2)c(C)n(C)c1C(=O)C(=O)NC(C)(C)CO [Example 381, N-(3,4-difluorophenyl)-5-(2-((1-hydroxy-2-methylpropan-2-yl)amino)-2-oxoacetyl)-4-methoxy-1,2-dimethyl-1H-pyrrole-3-carboxamide] yielded an EC50 [1] of 50 to 499 nM and a CC50 at 7 days [2] greater than 30000 nM.
In the case of Cc1cc(NC(=O)c2c(Cl)c(C(=O)C(=O)NC(C)(C)C(F)(F)F)n3c2CCCC3)cnc1F [Example 730, 2-chloro-N-(6-fluoro-5-methylpyridin-3-yl)-3-(2-oxo-2-((1,1,1-trifluoro-2-methylpropan-2-yl)amino)acetyl)-5,6,7,8-tetrahydroindolizine-1-carboxamide], the EC50 [1] is reported as 50 to 499 nM and the CC50 at 7 days [2] is reported as greater than 30000 nM.
Cc1nnc(C(C)NC(=O)C(=O)c2c(C)c(C(=O)Nc3ccc(F)c(C)c3)c(C)n2C)o1 (centres unmarked) [Example 181, N-(4-fluoro-3-methylphenyl)-1,2,4-trimethyl-5-(2-((1-(5-methyl-1,3,4-oxadiazol-2-yl)ethyl)amino)-2-oxoacetyl)-1H-pyrrole-3-carboxamide] showed an EC50 [1] of less than 50 nM and a CC50 at 7 days [2] greater than 30000 nM.
With Cc1noc([C@@H](C)NC(=O)C(=O)c2c(Cl)c(C(=O)Nc3cnc(F)c(C)c3)c3n2CCC3)n1 [Example 735, (R)-6-chloro-N-(6-fluoro-5-methylpyridin-3-yl)-5-(2-((1-(3-methyl-1,2,4-oxxadiazol-5-yl)ethyl)amino)-2-oxoacetyl)-2,3-dihydro-1H-pyrrolizine-7-carboxamide] the EC50 [1] was 50 to 499 nM and the CC50 at 7 days [2] was 5000 to 30000 nM.
Work on Cc1cc(NC(=O)c2c(C)c(C(=O)C(=O)NC3(CO)CC3)n(C)c2C)ccc1F [Example 7, N-(4-fluoro-3-methylphenyl)-5-(2-((1-(hydroxymethyl)cyclopropyl)amino)-2-oxoacetyl)-1,2,4-trimethyl-1H-pyrrole-3-carboxamide] yielded an EC50 [1] of less than 50 nM and a CC50 at 7 days [2] greater than 30000 nM.
Cc1cc(NC(=O)c2c(C)c(C(=O)C(=O)NC3CC[C@@H](O)[C@@H](O)CC3)n(C)c2C)ccc1F (stereo partly drawn) [Example 713, 5-(2-(((4R,5S)-4,5-dihydroxycycloheptyl)amino)-2-oxoacetyl)-N-(4-fluoro-3-methylphenyl)-1,2,4-trimethyl-1H-pyrrole-3-carboxamide] showed an EC50 [1] of less than 50 nM and a CC50 at 7 days [2] greater than 30000 nM.
In the case of Cc1cc(NC(=O)c2c(Cl)c(C(=O)C(=O)NC3(CO)CC(F)(F)C3)n(C)c2C)ccc1F [Example 366, 4-chloro-5-(2-((3,3-difluoro-1-(hydroxymethyl)cyclobutyl)amino)-2-oxoacetyl)-N-(4-fluoro-3-methylphenyl)-1,2-dimethyl-1H-pyrrole-3-carboxamide], the EC50 [1] is reported as less than 50 nM and the CC50 at 7 days [2] is reported as greater than 30000 nM.
In the case of CC(=O)N1CCC(NC(=O)C(=O)c2c(C)c(C(=O)Nc3ccc(F)c(C)c3)c(C)n2C)CC1 [Example 354, 5-(2-((1-acetylpiperidin-4-yl)amino)-2-oxoacetyl)-N-(4-fluoro-3-methylphenyl)-1,2,4-trimethyl-1H-pyrrole-3-carboxamide], the EC50 [1] is reported as less than 50 nM and the CC50 at 7 days [2] is reported as greater than 30000 nM.
Compound O=C(N[C@H]1COC[C@@H]1O)C(=O)c1c(Cl)c(C(=O)Nc2ccc(F)c(F)c2)c2n1CCCC2 [Example 518, 2-chloro-N-(3,4-difluorophenyl)-3-(2-(((3S,4R)-4-hydroxytetrahydrofuran-3-yl)amino)-2-oxoacetyl)-5,6,7,8-tetrahdyroindolinzie-1-carboxamide] has an EC50 [1] of 50 to 499 nM and a CC50 at 7 days [2] of 5000 to 30000 nM.
Compound CC[C@@H](CO)NC(=O)C(=O)c1c(OC)c(C(=O)Nc2ccc(F)c(F)c2)c(C)n1C [Example 385, (S)-N-(3,4-difluorophenyl)-5-(2-((1-hydroxybutan-2-yl)amino)-2-oxoacetyl)-4-methoxy-1,2-dimethyl-1H-pyrrole-3-carboxamide] has an EC50 [1] greater than 1000 nM and a CC50 at 7 days [2] greater than 30000 nM.
